Results: patent US20190328721A1, “METHOD OF ACTIVATING DENDRITIC CELLS” (KOREA INSTITUTE OF SCIENCE AND TECHNOLOGY, priority 2018, published 2019)

How the values were obtained:
[1] = system: bone marrow-derived dendritic cells (BMDC); assay: Cross presentation of H-2Kb-Ova by BMDCs in vitro; format: cell-based, mice; details: Y27632 30 μM, 1 hour on BMDCs; cancer cells doxorubicin treated or untreated
Procedure: Furthermore, the inventors investigated whether the cross presentation of dendritic cells was promoted by the combination treatment of doxorubicin and Y27632. To this end, the present inventors used 30 μM of Y27632 to pretreat bone marrow-derived dendritic cells (BMDC) stained with CellTracker CMFDA (Thermo Fisher Scientific, USA) for 1 hour, followed by treatment with doxorubicin treated B16F10-Ova cells or doxorubicin untreated B16F10-Ova cells. After the co-culture, floating cancer cells were removed by withdrawing supernatant. Cross presentation activity, which is one of functions of dendritic cells, was analyzed via flow cytometry analysis using an antibody capable of detect a cancer antigen (H-2K^b-Ova) capable of activating T cells, through flow cytometry analysis using an antibody (H-2K^b monoclonal antibody, Invitrogen, USA).

MMTV/Neu mice tumors = assay: Spontaneous cancer development model; format: in vivo; details: anti-CD8 fluorescence immunohistochemistry
Procedure: The survival rate was recorded over up to 100 days. When the size of tumor was over 2,500 mm^3, the animal was euthanized (FIG. 20C).
Specifically, fluorescence immunohistochemical analysis was performed using anti-CD8 antibodies in the cancer tissues after the end of the experiment.
Accordingly, the present inventors investigated whether the combination of the drugs can increase the anti-cancer immunity even in the spontaneous cancer development model. […] After completion of the experiment, the present inventors isolated the spleen cells and treated with peptide against rat-Neu, an antigen expressed in the cancer of the spontaneous cancer development model, and after 48 hours, the culture supernatant was collected and IFN-γ was quantified using an ELISA kit (R&D Systems, Inc, USA).

dendritic cells = assay: Flow cytometry of dendritic cells from B16F10-Ova-bearing mice (maturation, subsets, cross presentation); format: in vivo; details: tumor-draining lymph nodes
Procedure: To confirm the effect of the ROCK inhibitor Y27632 on the maturation process of dendritic cells, the inventors administered Y27362 to B16F10-Ova-bearing cancer model animals according to the same administration schedule as in Example 2-1, and the expression of CD40 and CD86, which are dendritic cell maturation markers, was analyzed by flow cytometry.
Recently, it has been shown that CD103 (corresponding to CD141 in humans)-positive dendritic cells (CD103 DC) play an important role in cancer cell phagocytosis and T cell anticancer immunity among dendritic cells (Broz et al., Cancer Cell, 26 (5): 638-652, 2014). Therefore, in order to analyze the effect of the ROCK inhibitor on CD103 DC, Y27632 was administered to B16F10-Ova-bearing cancer model mice according to the administration schedule described in the above Example 2-1, tumor tissues and tumor-draining lymph nodes were excised, and then flow cytometry analysis was performed using antibodies specifically binding to dendritic cell markers (CD11b, CD103 and CD8). It was confirmed that the ratio of CD103 DC was increased by Y27632 in both the tumor-draining lymph nodes (FIG. 15A) and the tumor tissues (FIG. 15B). On the other hand, in the case of CD11b-positive and CD8-positive dendritic cells, no change due to administration of Y27632 was observed.
The present inventors analyzed cross presentation activity which is one of functions of dendritic cells via flow cytometry analysis using an antibody capable of detecting a cancer antigen (H-2K^b-Ova) capable of activating T cells, through flow cytometry analysis using an antibody (H-2K^b monoclonal antibody, Invitrogen, USA). It was confirmed that the cross presentation of CD103 DC was increased by Y27632 in both tumor-draining lymph nodes (FIG. 15C) and tumor tissues (FIG. 15D).
Further, the present inventors analyzed CD40, which is one of the markers of dendritic cell function capable of activating T cells and a DC maturation marker of dendritic cells, by flow cytometry analysis using anti-CD40 antibodies. As shown in FIGS. 15E and 15F, it was confirmed that the maturation of CD103 DC was increased by Y27632 in the tumor-draining lymph nodes.
The present inventors analyzed a series of immunological induction processes occurring after the phagocytosis against cancer cells or cancer-specific antigens in order to analyze the mechanism of the combination therapy for the anti-cancer immune response. Specifically, in order to confirm the effect of the combination therapy on the dendritic cell maturation, Y27632 and doxorubicin were administered to B16F10-Ova-bearing cancer model mice as described above, and then tumor-draining lymph nodes were isolated and the expression of CD40 and CD86, which are dendritic cell maturation markers, was analyzed by flow cytometry analysis.
Further, in order to confirm the effect of the combined treatment on the cross presentation process to the dendritic cells, the present inventors administered Y27632 and doxorubicin to B16F10-Ova-bearing cancer model mice as described above, isolated the tumor-draining lymph nodes, and then cross presentation activity, which is one of functions of dendritic cells, was analyzed via flow cytometry analysis using an antibody capable of detect a cancer antigen (H-2K^b-Ova) capable of activating T cells, through flow cytometry analysis using an antibody (H-2K^b monoclonal antibody, Invitrogen, USA).
The present inventors then investigated the effect of the combination of the drugs on the maturation process of dendritic cells. Specifically, the tumor-draining lymph nodes were isolated after administration of Y27632 and/or cisplatin in the B16F10-Ova-bearing cancer model, and the expression level of CD40 and CD86, the dendritic cell maturation markers, was analyzed by flow cytometry. As shown in FIG. 19C and 19D, there was no influence on the maturation of dendritic cells when Y27632 alone, cisplatin alone, or the combination of the two were administered (FIGS. 19C and 19D). […]

B16F10-Ova = B16F10-Ova tumor model, Y27632 combined with a chemotherapeutic; format: in vivo, mice; details: doxorubicin 5 mg/kg, Y27632 10 mg/kg
Procedure: Specifically, tumor suppression was examined by administering 5 mg/kg of doxorubicin and 10 mg/kg of Y27632 alone or in combination to B16F10-Ova-bearing tumor model mice prepared as in Example 2-1. Doxorubicin was administered three times at intervals of 3 days from the 8th day after the injection of cancer cells, and Y27632 was administered at a dose of 10 mg/kg continuously for two consecutive days via intravenous injection followed by a day of rest as a cycle, followed by 3 cycles of 3-day intervals (FIG. 18A). The mice were sacrificed on the 20th day after the injection of cancer cells, the tumor tissue was excised, and ex vivo images were taken and the tumor tissues were weighed. Before the sacrifice of the mice, the tumor volumes over time were calculated as described above using calipers at intervals of 3 days from the 8th day after the injection of the cancer cells.
In order to confirm whether CD8^+ T cells infiltrates into tumor tissues, tumor tissues excised from an experimental animal were sectioned and subjected to fluorescence immunohistochemistry using anti-CD8 antibodies.
First, to determine the cisplatin therapeutic concentration, a B16F10-Ova tumor model was constructed in a nude mouse lacking T cell immunity and then an experiment was conducted to confirm the concentration of cisplatin having an anticancer effect similar to that of doxorubicin at 5 mg/kg. […] Thus, in order to evaluate the therapeutic effect of cisplatin and the ROCK inhibitor Y27632 in the B16F10-Ova-bearing tumor model, 3 mg/kg of cisplatin was administered according to the administration schedule shown in FIG. 18A.

B16F10 cancer cells = assay: B16F10 tumor model, ripasudil, PDT and anti-PD-L1 antibodies; design: species or system C57BL/6 wild-type mice; details: mouse, in vivo
[2] = system: bone marrow-derived dendritic cells (BMDCs); assay: Phagocytosis of cancer cells by bone marrow-derived dendritic cells in vitro; format: cell-based, mice; details: 30 μM, 1 hour; B16F10; co-cultivated 30 min
[3] = system: bone marrow-derived macrophages (BMDMs); assay: Phagocytosis of cancer cells by bone marrow-derived macrophages in vitro; format: cell-based, mice
Procedure: (§1) Specifically, the present inventors prepared bone marrow-derived macrophages (BMDMs) differentiated from excised bone marrow of mice using M-CSF and bone marrow-derived dendritic cells (BMDCs) differentiated from excised bone marrow using Flt3L. The degree of differentiation was confirmed by flow cytometry analysis using antibodies specifically binding to F4/80 (BMDM marker) and CD11c (BMDC marker), respectively (FIGS. 2A and 2B).
(§2) The prepared BMDMs and BMDCs were stained with 1 μM CellTracker Deep Red (Thermo Fisher Scientific, USA). 30 μM of Y27632 (Abcam, USA) or 30 μM of fasudil (Selleck Chemicals, USA) was added to each of 15×10^4 cells/ml of the stained macrophages and dendritic cells and incubated at 37° C. for 1 hour. As a negative control, macrophages or dendritic cells that were not incubated with Y27632 and fasudil were used.
(§3) Bone marrow-derived macrophages or dendritic cells prepared in RPMI medium and cancer cell lines stained with 1 μM CellTracker CMFDA (Thermo Fisher Scientific, USA) were co-cultured at about 37° C. for about 2 hours. CT26.CL25, a colon cancer cell line, and B16F10-OVA, a melanoma cell line, were used as the cancer cells.
(§4) Thereafter, the percentage of cancer cells was measured by flow cytometry, and the phagocytosis ratio of macrophages and dendritic cells against cancer cells was calculated. The results are shown in FIGS. 2C to 2F (left: cancer cell line CT26.CL25, right: cancer cell line B16F10-OVA).
(§5) In order to more accurately analyze the phagocytosis of macrophages and dendritic cells against cancer cells according to the treatment of the ROCK inhibitor, the present inventors analyzed phagocytosis of the BMDMs and BMDCs against CT26.CL25 colon cancer cells using the pHrodo-SE dye, which changes in fluorescence depending on pH. When […], the pH of the cancer cells decreased and became red. When treated with Y27632 as described above for the above-mentioned phagocytosis response, the phagocytic activities of both the BMDMs and BMDCs against cancer cells were improved.
(§6) The present inventors performed an experiment to confirm how long the phagocytosis of BMDMs and BMDCs against cancer cells due to the ROCK inhibitor is maintained. Specifically, BMDMs and BMDCs were pretreated with Y27632 for 1 hour, then Y27632 was removed, and immediately after 30 minutes, 1 hour, 2 hours, or 4 hours, the phagocytosis against CT26.CL25 and B16F10-Ova was measured using a flow cytometer. The other experimental conditions were the same as in Example 1-1.
(§7) In order to confirm whether the ROCK inhibitor increases phagocytosis against cancer cells by acting on phagocytic cells (BMDMs or BMDCs) themselves, Y27632 was used to pretreat the phagocytic cells or cancer cells for 1 hour, and the phagocytic activity was analyzed using the same procedure described in Example 1-1.
The present inventors identified through the above-mentioned results that Y27632 promotes phagocytic cells against cancer cells by inhibiting ROCK in the phagocytic cells. In order to elucidate a more detailed mechanism related to the increase of phagocytic activity by ROCK inhibitors, the present inventors analyzed phagocytosis of the phagocytic cells against cancer cells using blebbistatin (Sigma-Aldrich, USA), which can inhibit the movement of myosin light chain, which exist downstream of ROCK signaling pathway, according to the method described in Example 1-1.
Bone marrow-derived macrophages (BMDMs) treated with 30 μM of fasudil were co-cultured with B16F10-Ova malignant melanoma cells for 1 hour and the phagocytic activity of the BMDMs against apoptotic cancer cells was analyzed by flow cytometry analysis. In order to induce immunogenic apoptosis, 2.5 μM mitoxantrone (Sigma-Aldrich, USA) was administered with B16F10-Ova cells stained with CellTracker Deep Red (Thermo Fisher Scientific, USA) for 4 hours. […]

[4] = system: bone marrow-derived dendritic cells (BMDCs); assay: Phagocytosis of cancer cells by bone marrow-derived dendritic cells in vitro; format: cell-based, mice; details: method of Example 1-1; CT26.CL25 and B16F10-Ova
Procedure: as §1, §2, §3, §4, §5, §6
as §7, with “1-1. […]” for “1-1.”
Phagocytic activity of bone marrow-derived dendritic cells (BMDCs) differentiated from bone marrow cells against cancer cells was analyzed by treating the BMDCs with ROCK inhibitor Y27632 (30 μM) for 1 hour and then co-cultivating with CT26.CL25 colon cancer cells pretreated with 25 μM of doxorubicin for 24 hours or B16F10-Ova malignant melanoma cells treated with 30 μM of Y27632 for 1 hour and then treated with 2.5 μM doxorubicin (Sigma-Aldrich, USA) for 24 hours by pHrodo SE (Thermo Fisher Scientific, USA) staining (BMDC:Dox-treated B16F10-Ova=1:1). As shown in FIGS. 16A to 16D, it was confirmed that the phagocytic activity of BMDCs induced by doxorubicin were increased in the Y27632-treated group compared to the control group (FIGS. 16A to 16D). […]

CT26 cancer cells = assay: CT26 tumor model; format: in vivo, mice; details: fasudil 20 mg/kg; Y27632 10 mg/kg
Procedure: The same procedure as described above was repeated except that CT26 was used instead of the CT26.CL25 colon cancer cell line and fasudil (Selleck Chemicals, USA) at 20 mg/kg of body weight or Y27632 at 10 mg/kg of body weight was administered.

[5] = doxorubicin 5 mg/kg, Y27632 10 mg/kg

COc1cccc2c1C(=O)c1c(O)c3c(c(O)c1C2=O)C[C@@](O)(C(=O)CO)C[C@@H]3O[C@H]1C[C@H](N)[C@H](O)[C@H](C)O1 [doxorubicin]
cross presentation (H-2Kb-Ova) of BMDCs co-cultured with B16F10-Ova cells [1]: increased the cross-presentation | CD8+ T cells in tumor tissues (infiltration) (MMTV/Neu mice tumors): some T cell infiltration | antigenic cross presentation (H-2Kb-Ova) in the dendritic cells (dendritic cells; [5]): did not significantly increase | dendritic cell maturation (expression of CD40 and CD86) (dendritic cells; [5]): no effect | complete regression of the tumor (B16F10-Ova): not observed | infiltration of CD8+ T cells into tumor tissues (B16F10-Ova): slight infiltration

N.N.[Cl][Pt][Cl] [cisplatin]
cross-presentation function (H-2Kb-Ova) of dendritic cells (dendritic cells; cisplatin study): no effect | maturation of dendritic cells (CD40 and CD86) (dendritic cells; cisplatin study): no influence

C[C@H]1CNCCCN1S(=O)(=O)c1cccc2cncc(F)c12 [ripasudil]
CD40 and CD86 on dendritic cells of tumor draining lymph nodes (B16F10 cancer cells): No increased expression | phagocytic activity of BMDCs against PDT-treated cancer cells [2]: significantly increased | phagocytic activity of BMDMs against PDT-treated cancer cells ([3]; 30 μM, 1 hour, B16F10, co-cultivated 30 min): significantly increased

Cc1ccc2c(c1)C(=O)C1(O)CCN(c3ccccc3)C1=N2 (stereo not drawn) [blebbistatin]
phagocytic action of phagocytic cells against cancer cells (BMDCs) [4]: significantly enhance | phagocytic action of phagocytic cells against cancer cells (BMDMs) ([3]; method of Example 1-1, CT26.CL25 and B16F10-Ova): significantly enhance

O=S(=O)(c1cccc2cnccc12)N1CCCNCC1 [fasudil]
growth of cancer (size of the tumor) (CT26 cancer cells): inhibited the growth of cancer similarly to Y27632 | phagocytosis of BMDMs against cancer cells in immunogenic cell death induced by mitoxantrone ([3]; 30 μM, 1 hour, B16F10-Ova treated with 2.5 μM mitoxantrone, compared with control): significant increase
